In PMC5487684, “Safety, Pharmacokinetics, and Antiviral Activity of a Novel HIV Antiviral, ABX464, in Treatment-Naive HIV-Infected Subjects in a Phase 2 Randomized, Controlled Study” (Antimicrobial Agents and Chemotherapy, 2017):

System: HIV-infected subjects
Assay: Safety and tolerability (TEAEs, ECG, laboratory) after repeated oral administration, phase 2a study
Type: in vivo, human
Conditions: for Subjects experiencing at least one TEAE: Flank pain / Subjects experiencing at least one TEAE: Headache / Subjects experiencing at least one TEAE: Injury, poisoning, and procedural complications / Subjects experiencing at least one TEAE: Musculoskeletal and connective tissue disorders / Subjects experiencing at least one TEAE: Nausea / Subjects experiencing at least one TEAE: Neck pain / Subjects experiencing at least one TEAE: Nervous system disorders / Subjects experiencing at least one TEAE: Pain in extremity / Subjects experiencing at least one TEAE: Sciatica, back pain / Subjects experiencing at least one TEAE: Skin abrasion / Subjects experiencing at least one TEAE: Total / Subjects experiencing at least one TEAE: Upper abdominal pain / Subjects experiencing at least one TEAE: Vomiting / Subjects experiencing at least one TEAE: Abdominal pain / Subjects experiencing at least one TEAE: Arthralgia / Subjects experiencing at least one TEAE: Back pain / Subjects experiencing at least one TEAE: Diarrhea / Subjects experiencing at least one TEAE: Gastrointestinal disorders: fed
Protocol: Participants were assigned to one of eight groups; each group (with one exception) included eight subjects receiving either ABX464 (n = 6) or the corresponding placebo (n = 2) according to a randomization code. […] In the present study with HIV-infected subjects, the first dose administered was 25 mg, given once or 3 times a day over a 2- to 3-week period. This initial dose was therefore considered safe for assessment of the safety and tolerability of ABX464 after repeated oral administrations in subjects infected by HIV and determination of the potential effect on the HIV viral load.
The final dosing protocol for each of the eight groups was as follows: group 1, 25 mg every 3 days for 2 to 3 weeks under fasted conditions; group 2, 25 mg once a day (q.d.) for 2 to 3 weeks under fasted conditions; group 3, 50 mg once a day for 2 to 3 weeks under fasted conditions; group 4, 50 mg 3 times a day (t.i.d.) for 4 weeks under fed conditions; group 5, 75 mg once a day for 2 weeks under fed conditions; group 6, 100 mg once a day for 2 to 3 weeks under fasted conditions; group 7, 150 mg every 3 days for 2 to 3 weeks under fed conditions; and group 8, 150 mg once a day for 2 weeks under fed conditions. Per the study protocol, the treatment period was defined as 2 weeks. […] The decision to proceed to the next highest dose was determined by the data and safety monitoring board after review of the laboratory safety data, vital signs, ECGs, and adverse event reports from the group receiving the current dose after 2 weeks of treatment.
Subjects were hospitalized from the day prior to the first dose to at least the morning of day 2. They were orally dosed with 25-mg capsules of ABX464 with 240 ml water under fed or fasted conditions. According to the group, subjects were dosed with 1, 2, 3, 4, or 6 capsules to deliver 25 mg, 50 mg, 75 mg, 100 mg, or 150 mg product, respectively, or the same number of placebo capsules.
Safety assessments and laboratory tests were carried out according to the schedules described in Table S4 for groups dosed every day, every 3 days, and 3 times a day. Follow-up visits were scheduled for 7 days after the last dose and subsequently once every week in order to assess the elimination of the main ABX464 metabolite and to assess the viral load. Follow-up visits were terminated when the virus load was within 0.5 log of the baseline value or after 3 follow-up visits, whichever came first. Prior to the statistical analyses, AEs were coded using the Medical Dictionary for Regulatory Activities (MedDRA dictionary; last available version) in order to be tabulated by system organ class (SOC) and preferred term (PT). The AEs were analyzed according to the treatment emergence phase from the first study drug administration on day 1 up to 48 h after the last study drug administration. The number and percentage of subjects with at least one TEAE were tabulated by SOC and PT for each group and dose. The number of occurrences of TEAEs was also analyzed in the same way by SOC and PT for each group and dose, by grade of severity for each group and dose, and by level of causality to the study drug for each group and dose.

[1] = Group 7 (n = 6), 150 mg every 3 days, Mild
[2] = Group 7 (n = 6), 150 mg every 3 days, Moderate
[3] = Group 8 (n = 6), 150 mg q.d., Mild
[4] = Group 8 (n = 6), 150 mg q.d., Moderate

FC(F)(F)Oc1ccc(Nc2ccc3cccc(Cl)c3n2)cc1 [ABX464]
Subjects experiencing at least one TEAE: Flank pain [1]: 0 (0.0) No. (%) | Subjects experiencing at least one TEAE: Headache [1]: 4 (66.7) No. (%) | Subjects experiencing at least one TEAE: Injury, poisoning, and procedural complications [1]: 0 (0.0) No. (%) | Subjects experiencing at least one TEAE: Musculoskeletal and connective tissue disorders [1]: 1 (16.7) No. (%) | Subjects experiencing at least one TEAE: Nausea [1]: 4 (66.7) No. (%) | Subjects experiencing at least one TEAE: Neck pain [1]: 0 (0.0) No. (%) | Subjects experiencing at least one TEAE: Nervous system disorders [1]: 4 (66.7) No. (%) | Subjects experiencing at least one TEAE: Pain in extremity [1]: 0 (0.0) No. (%) | Subjects experiencing at least one TEAE: Sciatica, back pain [1]: 0 (0.0) No. (%) | Subjects experiencing at least one TEAE: Skin abrasion [1]: 0 (0.0) No. (%) | Subjects experiencing at least one TEAE: Total [1]: 5 (83.3) No. (%) | Subjects experiencing at least one TEAE: Upper abdominal pain [1]: 0 (0.0) No. (%) | Subjects experiencing at least one TEAE: Vomiting [1]: 1 (16.7) No. (%) | Subjects experiencing at least one TEAE: Abdominal pain [2]: 0 (0.0) No. (%) | Subjects experiencing at least one TEAE: Arthralgia [2]: 0 (0.0) No. (%) | Subjects experiencing at least one TEAE: Back pain [2]: 0 (0.0) No. (%) | Subjects experiencing at least one TEAE: Diarrhea [2]: 0 (0.0) No. (%) | Subjects experiencing at least one TEAE: Flank pain [2]: 0 (0.0) No. (%) | Subjects experiencing at least one TEAE: Gastrointestinal disorders [2]: 3 (50.0) No. (%) | Subjects experiencing at least one TEAE: Headache [2]: 3 (50.0) No. (%) | Subjects experiencing at least one TEAE: Injury, poisoning, and procedural complications [2]: 0 (0.0) No. (%) | Subjects experiencing at least one TEAE: Musculoskeletal and connective tissue disorders [2]: 0 (0.0) No. (%) | Subjects experiencing at least one TEAE: Nausea [2]: 3 (50.0) No. (%) | Subjects experiencing at least one TEAE: Neck pain [2]: 0 (0.0) No. (%) | Subjects experiencing at least one TEAE: Nervous system disorders [2]: 4 (66.7) No. (%) | Subjects experiencing at least one TEAE: Pain in extremity [2]: 0 (0.0) No. (%) | Subjects experiencing at least one TEAE: Sciatica, back pain [2]: 0 (0.0) No. (%) | Subjects experiencing at least one TEAE: Skin abrasion [2]: 0 (0.0) No. (%) | Subjects experiencing at least one TEAE: Total [2]: 4 (66.7) No. (%) | Subjects experiencing at least one TEAE: Upper abdominal pain [2]: 0 (0.0) No. (%) | Subjects experiencing at least one TEAE: Vomiting [2]: 3 (50.0) No. (%) | Subjects experiencing at least one TEAE: Abdominal pain [3]: 1 (16.7) No. (%) | Subjects experiencing at least one TEAE: Arthralgia [3]: 0 (0.0) No. (%) | Subjects experiencing at least one TEAE: Back pain [3]: 0 (0.0) No. (%) | Subjects experiencing at least one TEAE: Diarrhea [3]: 0 (0.0) No. (%) | Subjects experiencing at least one TEAE: Flank pain [3]: 0 (0.0) No. (%) | Subjects experiencing at least one TEAE: Gastrointestinal disorders [3]: 6 (100.0) No. (%) | Subjects experiencing at least one TEAE: Headache [3]: 6 (100.0) No. (%) | Subjects experiencing at least one TEAE: Injury, poisoning, and procedural complications [3]: 0 (0.0) No. (%) | Subjects experiencing at least one TEAE: Musculoskeletal and connective tissue disorders [3]: 1 (16.7) No. (%) | Subjects experiencing at least one TEAE: Nausea [3]: 6 (100.0) No. (%) | Subjects experiencing at least one TEAE: Neck pain [3]: 0 (0.0) No. (%) | Subjects experiencing at least one TEAE: Nervous system disorders [3]: 6 (100.0) No. (%) | Subjects experiencing at least one TEAE: Pain in extremity [3]: 1 (16.7) No. (%) | Subjects experiencing at least one TEAE: Sciatica, back pain [3]: 0 (0.0) No. (%) | Subjects experiencing at least one TEAE: Skin abrasion [3]: 0 (0.0) No. (%) | Subjects experiencing at least one TEAE: Total [3]: 6 (100.0) No. (%) | Subjects experiencing at least one TEAE: Upper abdominal pain [3]: 0 (0.0) No. (%) | Subjects experiencing at least one TEAE: Vomiting [3]: 4 (66.7) No. (%) | Subjects experiencing at least one TEAE: Abdominal pain [4]: 0 (0.0) No. (%) | Subjects experiencing at least one TEAE: Arthralgia [4]: 0 (0.0) No. (%) | Subjects experiencing at least one TEAE: Back pain [4]: 0 (0.0) No. (%) | Subjects experiencing at least one TEAE: Diarrhea [4]: 0 (0.0) No. (%) | Subjects experiencing at least one TEAE: Flank pain [4]: 0 (0.0) No. (%) | Subjects experiencing at least one TEAE: Headache [4]: 0 (0.0) No. (%) | Subjects experiencing at least one TEAE: Injury, poisoning, and procedural complications [4]: 1 (16.7) No. (%) | Subjects experiencing at least one TEAE: Musculoskeletal and connective tissue disorders [4]: 0 (0.0) No. (%) | Subjects experiencing at least one TEAE: Nausea [4]: 0 (0.0) No. (%) | Subjects experiencing at least one TEAE: Neck pain [4]: 0 (0.0) No. (%) | Subjects experiencing at least one TEAE: Nervous system disorders [4]: 0 (0.0) No. (%) | Subjects experiencing at least one TEAE: Pain in extremity [4]: 0 (0.0) No. (%) | Subjects experiencing at least one TEAE: Sciatica, back pain [4]: 0 (0.0) No. (%) | Subjects experiencing at least one TEAE: Skin abrasion [4]: 1 (16.7) No. (%) | Subjects experiencing at least one TEAE: Total [4]: 1 (16.7) No. (%) | Subjects experiencing at least one TEAE: Upper abdominal pain [4]: 0 (0.0) No. (%) | Subjects experiencing at least one TEAE: Vomiting [4]: 0 (0.0) No. (%) | Frequency of subjects receiving ABX464 who reported TEAEs (all other groups (4 to 8)): 100% | Subjects with vomiting episodes (group receiving 150 mg ABX464): 66.7% | Changes in laboratory parameters between baseline and posttreatment (in vivo): none of the changes in any laboratory parameter observed between baseline and posttreatment measurements suggested an impact | Electrocardiogram (ECG) parameters (in vivo): no clinically significant abnormalities | Product-related SAEs (in vivo): no product-related SAEs occurred | Subjects reporting upper abdominal pain (overall): 6% | Number of AEs reported (subjects who received the study drug, regardless of the dose or the drug regimen): 158 AEs | Subjects reporting upper abdominal pain (twenty cases, none in placebo): 4 subjects | Overall safety and tolerability (up to 150 mg once a day, HIV-infected subjects): safe and well tolerated
